Source: patent US8574563B2 (Bristol-Myers Squibb Company, priority 2006, dated 2013)

tested on: HCV 1b-377-neo replicon cells; assay: HCV replicon assay, HCV 1b-377-neo replicon cells (1b FRET); format: cell-based, Hepatitis C virus genotype 1b; conditions: Hepatitis C virus, HCV 1b-377-neo replicon cells; HCV 1b genotype; read-out: EC50 range against HCV 1b (Table 2, Range)
In short: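 Compounds were tested in genotype 1b subgenomic replicon cells carrying a neomycin marker, alongside a matched replicon line with an NS5A Y2065H substitution that confers resistance to a reference NS5A inhibitor.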

SMILES	EC50
O=C(Cc1ccccc1CN1CCCC1)N1CCC[C@H]1c1ncc(-c2ccc(-c3ccc(-c4cnc([C@@H]5CCCN5C(=O)[C@@H](c5ccccc5)N5CCCCC5)[nH]4)cc3)cc2)[nH]1 [Example 107-27, 1-((1R)-2-oxo-1-phenyl-2-((2S)-2-(5-(4′-(2-((2S)-1-((2-(1-pyrrolidinylmethyl)phenyl)acetyl)-2-pyrrolidinyl)-1H-imidazol-5-yl)-4-biphenylyl)-1H-imidazol-2-yl)-1-pyrrolidinyl)ethyl)piperidine]	0.001 to 0.999 nM
Cc1cc(CC(=O)N2CCC[C@H]2c2ncc(-c3ccc(-c4ccc(-c5cnc([C@@H]6CCCN6C(=O)[C@@H](c6ccccc6)N6CCCCC6)[nH]5)cc4)cc3)[nH]2)on1 [Example 107-24, 1-((1R)-2-((2S)-2-(5-(4′-(2-((2S)-1-((3-methyl-5-isoxazolyl)acetyl)-2-pyrrolidinyl)-1H-imidazol-5-yl)-4-biphenylyl)-1H-imidazol-2-yl)-1-pyrrolidinyl)-2-oxo-1-phenylethyl) piperidine]	0.001 to 0.999 nM
CN1CCN(C(C(=O)N2CCC[C@H]2c2ncc(-c3ccc(-c4ccc(-c5c[nH]c([C@@H]6CCCN6C(=O)[C@H]6CCCO6)n5)cc4)cc3)[nH]2)c2ccccc2)CC1 (stereo partly drawn) [Example 103-3, 1-methyl-4-(2-oxo-1-phenyl-2-((2S)-2-(5-(4′-(2-((2S)-1-((2R)-tetrahydro-2-furanylcarbonyl)-2-pyrrolidinyl)-1H-imidazol-4-yl)-4-biphenylyl)-1H-imidazol-2-yl)-1-pyrrolidinyl)ethyl)piperazine]	0.001 to 0.999 nM
O=C(N[C@@H](C(=O)N1CCC[C@H]1c1ncc(-c2ccc(-c3ccc(-c4cnc([C@@H]5CCCN5C(=O)[C@H]5CCCO5)[nH]4)cc3)cc2)[nH]1)c1ccccc1)[C@H]1CCCO1 [Example 119, (2R)-N-((1R)-2-oxo-1-phenyl-2-((2S)-2-(5-(4′-(2-((2S)-1-((2R)-tetrahydro-2-furanylcarbonyl)-2-pyrrolidinyl)-1H-imidazol-5-yl)-4-biphenylyl)-1H-imidazol-2-yl)-1-pyrrolidinyl)ethyl)tetrahydro-2-furancarboxamide]	0.001 to 0.999 nM
COc1ccccc1OCC(=O)N1CCC[C@H]1c1ncc(-c2ccc(-c3ccc(-c4cnc([C@@H]5CCCN5C(=O)[C@@H](c5ccccc5)N(C)C)[nH]4)cc3)cc2)[nH]1 [Example 94-24, (1R)-2-((2S)-2-(5-(4′-(2-((2S)-1-((2-methoxyphenoxy)acetyl)-2-pyrrolidinyl)-1H-imidazol-5-yl)-4-biphenylyl)-1H-imidazol-2-yl)-1-pyrrolidinyl)-N,N-dimethyl-2-oxo-1-phenylethanamine]	0.001 to 0.999 nM
O=C(N[C@@H](C(=O)N1CCC[C@H]1c1ncc(-c2ccc(-c3ccc(-c4cnc([C@@H]5CCCN5C(=O)[C@@H]5CCCO5)[nH]4)cc3)cc2)[nH]1)c1ccccc1)C1CCOCC1 [Example 115, N-((1R)-2-oxo-1-phenyl-2-((2S)-2-(5-(4′-(2-((2S)-1-((2S)-tetrahydro-2-furanylcarbonyl)-2-pyrrolidinyl)-1H-imidazol-5-yl)-4-biphenylyl)-1H-imidazol-2-yl)-1-pyrrolidinyl)ethyl) tetrahydro-2H-pyran-4-carboxamide]	0.001 to 0.999 nM
COC(=O)N[C@H](C(=O)N1CCC[C@H]1c1ncc(-c2ccc(-c3ccc(-c4[nH]c([C@@H]5CCCN5C(=O)[C@@H](NC(=O)OC)C(C)C)nc4C(F)(F)F)cc3)cc2)[nH]1)C(C)C [Example J39, methyl ((1S)-1-(((2S)-2-(5-(4′-(2-((2S)-1-((2S)-2-((methoxycarbonyl)amino)-3-methylbutanoyl)-2-pyrrolidinyl)-1H-imidazol-5-yl)-4-biphenylyl)-4-(trifluoromethyl)-1H-imidazol-2-yl)-1-pyrrolidinyl)carbonyl)-2-methylpropyl)carbamate]	0.001 to 0.999 nM
CNC(=O)c1nc([C@@H]2CCCN2C(=O)[C@H](NC(=O)OC)c2ccccc2)[nH]c1-c1ccc(-c2ccc(-c3cnc([C@@H]4CCCN4C(=O)[C@H](NC(=O)OC)c4ccccc4)[nH]3)cc2)cc1 [Example J25, methyl ((1R)-2-((2S)-2-(5-(4′-(2-((2S)-1-((2R)-2-((methoxycarbonyl)amino)-2-phenylacetyl)-2-pyrrolidinyl)-1H-imidazol-5-yl)-4-biphenylyl)-4-(methylcarbamoyl)-1H-imidazol-2-yl)-1-pyrrolidinyl)-2-oxo-1-phenylethyl)carbamate]	0.001 to 0.999 nM
CCC(CC)[C@H](NC(=O)OC)C(=O)N1CCC[C@H]1c1ncc(-c2ccc(-c3ccc(-c4cnc([C@@H]5CCCN5C(=O)[C@@H](NC(=O)OC)C(CC)CC)[nH]4)cc3)cc2)[nH]1 [OL-4, methyl ((1S)-2-ethyl-1-(((2S)-2-(4-(4′-(2-((2S)-1-((2S)-3-ethyl-2-((methoxycarbonyl)amino)pentanoyl)-2-pyrrolidinyl)-1H-imidazol-4-yl)-4-biphenylyl)-1H-imidazol-2-yl)-1-pyrrolidinyl)carbonyl)butyl)carbamate]	0.001 to 0.999 nM
CCN(CC)[C@H](C)C(=O)N1CCC[C@H]1c1ncc(-c2ccc(-c3ccc(-c4cnc([C@@H]5CCCN5C(=O)[C@@H](NC(=O)OC)C(C)C)[nH]4)cc3)cc2F)[nH]1 [Example D43, methyl ((1S)-1-(((2S)-2-(5-(4′-(2-((2S)-1-(N,N-diethyl-D-alanyl)-2-pyrrolidinyl)-1H-imidazol-5-yl)-3′-fluoro-4-biphenylyl)-1H-imidazol-2-yl)-1-pyrrolidinyl)carbonyl)-2-methylpropyl) carbamate]	0.001 to 0.999 nM
COC(=O)N[C@@H](Cc1ccncc1)C(=O)N1CCC[C@H]1c1ncc(-c2ccc(-c3ccc(-c4cnc([C@@H]5CCCN5C(=O)[C@@H](NC(=O)OC)[C@@H](C)OC)[nH]4)cc3)cc2)[nH]1 [cj-87, methyl ((1S)-2-((2S)-2-(5-(4′-(2-((2S)-1-((2S,3R)-3-methoxy-2-((methoxycarbonyl)amino)butanoyl)-2-pyrrolidinyl)-1H-imidazol-5-yl)-4-biphenylyl)-1H-imidazol-2-yl)-1-pyrrolidinyl)-2-oxo-1-(4-pyridinylmethyl)ethyl)carbamate]	0.001 to 0.999 nM
COC(=O)N[C@@H](Cc1ccccn1)C(=O)N1CCC[C@H]1c1ncc(-c2ccc(-c3ccc(-c4cnc([C@@H]5CCCN5C(=O)[C@H](Cc5ccccn5)NC(=O)OC)[nH]4)cc3)cc2)[nH]1 [cj-130, methyl ((1S)-2-((2S)-2-(5-(4′-(2-((2S)-1-((2S)-2-((methoxycarbonyl)amino)-3-(2-pyridinyl)propanoyl)-2-pyrrolidinyl)-1H-imidazol-5-yl)-4-biphenylyl)-1H-imidazol-2-yl)-1-pyrrolidinyl)-2-oxo-1-(2-pyridinylmethyl)ethyl)carbamate]	0.001 to 0.999 nM
COC(=O)N[C@@H](C(=O)N1CCC[C@H]1c1ncc(-c2ccc(-c3ccc(-c4cnc([C@@H]5CCCN5C(=O)c5cccnc5)[nH]4)cc3)cc2)[nH]1)c1ccccc1 [Example 68, methyl ((1R)-2-oxo-1-phenyl-2-((2S)-2-(5-(4′-(2-((2S)-1-(3-pyridinylcarbonyl)-2-pyrrolidinyl)-1H-imidazol-5-yl)-4-biphenylyl)-1H-imidazol-2-yl)-1-pyrrolidinyl)ethyl)carbamate]	0.001 to 0.999 nM
CN1CCC[C@H]1C(=O)N[C@@H](C(=O)N1CCC[C@H]1c1ncc(-c2ccc(-c3ccc(-c4c[nH]c([C@@H]5CCCN5C(=O)[C@H]5CCCO5)n4)cc3)cc2)[nH]1)c1ccccc1 [Example 120-6, 1-methyl-N-((1R)-2-oxo-1-phenyl-2-((2S)-2-(5-(4′-(2-((2S)-1-((2R)-tetrahydro-2-furanylcarbonyl)-2-pyrrolidinyl)-1H-imidazol-4-yl)-4-biphenylyl)-1H-imidazol-2-yl)-1-pyrrolidinyl)ethyl)-L-prolinamide]	1 to 99 nM
COC(=O)N[C@H](CC(=O)N1CCC[C@H]1c1ncc(-c2ccc(-c3ccc(-c4cnc([C@@H]5CCCN5C(=O)C[C@@H](NC(=O)OC)c5ccccc5)[nH]4)cc3)cc2)[nH]1)c1ccccc1 [cj-128, methyl ((1R)-3-((2S)-2-(5-(4′-(2-(1-((3R)-3-((methoxycarbonyl)amino)-3-phenylpropanoyl)-2-pyrrolidinyl)-1H-imidazol-5-yl)-4-biphenylyl)-1H-imidazol-2-yl)-1-pyrrolidinyl)-3-oxo-1-phenylpropyl)carbamate]	0.001 to 0.999 nM
CN(C)[C@@H](C(=O)N1CSC[C@H]1c1ncc(-c2ccc(-c3ccc(-c4cnc([C@@H]5CSCN5C(=O)[C@@H](c5ccccc5)N(C)C)[nH]4)cc3)cc2)[nH]1)c1ccccc1 [Example 148, (1R,1′R)-2,2′-(4,4′-biphenyldiylbis(1H-imidazole-5,2-diyl(4R)-1,3-thiazolidine-4,3-diyl))bis(N,N-dimethyl-2-oxo-1-phenylethanamine)]	1 to 99 nM
COC(=O)N[C@@H](C)C(=O)N1CCC[C@H]1c1ncc(-c2cnc(-c3ccc(-c4[nH]c([C@@H]5CCCN5C(=O)[C@H](C)NC(=O)OC)nc4C(F)(F)F)cc3)nc2)[nH]1 [Example J50, methyl ((1S)-2-((2S)-2-(5-(4-(5-(2-((2S)-1-(N-(methoxycarbonyl)-L-alanyl)-2-pyrrolidinyl)-1H-imidazol-5-yl)-2-pyrimidinyl)phenyl)-4-(trifluoromethyl)-1H-imidazol-2-yl)-1-pyrrolidinyl)-1-methyl-2-oxoethyl)carbamate]	0.001 to 0.999 nM
COC(=O)N[C@@H](C(=O)N1CCC[C@H]1c1ncc(-c2ccc(-c3ccc(-c4cnc([C@@H]5CCCN5C(=O)C(c5ccccc5)c5ccccc5)[nH]4)cc3)cc2)[nH]1)c1ccccc1 [Example 84-38, methyl ((1R)-2-((2S)-2-(5-(4′-(2-((2S)-1-(diphenylacetyl)-2-pyrrolidinyl)-1H-imidazol-5-yl)-4-biphenylyl)-1H-imidazol-2-yl)-1-pyrrolidinyl)-2-oxo-1-phenylethyl)carbamate]	0.001 to 0.999 nM
COC(=O)N[C@@H](C)C(=O)N1CCC[C@H]1c1ncc(-c2ccc(-c3ccc(-c4cnc([C@@H]5CCCN5C(=O)[C@H](C)NC(=O)OC)[nH]4)c(F)c3)cc2F)[nH]1 [Example D61, methyl ((1S)-2-((2S)-2-(5-(3,3,-difluoro-4′-(2-((2S)-1-(N-(methoxycarbonyl)-L-alanyl)-2-pyrrolidinyl)-1H-imidazol-5-yl)-4-biphenylyl)-1H-imidazol-2-yl)-1-pyrrolidinyl)-1-methyl-2-oxoethyl)carbamate]	0.001 to 0.999 nM
